Ten compounds from ChEMBL document CHEMBL1955864, “N-1 and C-3 substituted indole Schiff bases as selective COX-2 inhibitors: synthesis and biological evaluation” (Bioorg Med Chem Lett, 2012) can be followed below.

The structures appear in SMILES notation.

As usually defined, the IC50 is the concentration at which inhibition is half-maximal.

The assay concerns the target T1, Prostaglandin G/H synthase 1 (Ovis aries, UniProt P05979).
T1 sequence (P05979 whole entry): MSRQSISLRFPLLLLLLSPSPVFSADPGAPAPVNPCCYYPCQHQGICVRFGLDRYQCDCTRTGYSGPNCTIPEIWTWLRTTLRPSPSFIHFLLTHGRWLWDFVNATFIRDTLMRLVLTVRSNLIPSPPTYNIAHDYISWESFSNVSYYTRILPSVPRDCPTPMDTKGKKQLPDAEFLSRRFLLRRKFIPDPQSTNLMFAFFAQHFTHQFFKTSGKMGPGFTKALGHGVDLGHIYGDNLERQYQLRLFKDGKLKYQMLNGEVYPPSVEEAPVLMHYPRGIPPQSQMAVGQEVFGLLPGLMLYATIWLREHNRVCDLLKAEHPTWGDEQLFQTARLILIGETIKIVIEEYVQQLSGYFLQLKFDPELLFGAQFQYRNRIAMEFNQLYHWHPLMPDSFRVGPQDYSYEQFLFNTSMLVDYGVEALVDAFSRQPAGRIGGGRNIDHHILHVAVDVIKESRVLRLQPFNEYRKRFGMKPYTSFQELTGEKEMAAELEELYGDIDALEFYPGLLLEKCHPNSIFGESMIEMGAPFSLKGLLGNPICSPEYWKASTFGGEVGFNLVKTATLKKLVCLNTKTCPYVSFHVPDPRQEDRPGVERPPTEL
The experiment in a line: Inhibition of ovine COX-1 by enzyme immuno assay.
As for `FC(F)(F)c1ccc(/N=C/c2cn(Cc3ccccc3)c3ccccc23)cc1`, half-maximal inhibition (IC50) required 95.5 µM.

Compound `FC(F)(F)c1ccc(/N=C/c2c[nH]c3ccccc23)cc1` yielded a concentration for half-maximal inhibition (IC50) of 78.2 µM.

For the compound `O=C(c1ccccc1)n1cc(/C=N/c2ccc(C(F)(F)F)cc2)c2ccccc21`, the IC50 is more than 100 µM.

In turn, `O=C(c1ccccc1)n1cc(/C=N/c2ccc(F)cc2)c2ccccc21` came in with an IC50 of more than 100 µM.

Compound `O=C(c1ccccc1)n1cc(/C=N/c2ccc(Cl)cc2)c2ccccc21` registered an IC50 of 86.1 µM.

Compound `Cc1ccc(/N=C/c2c[nH]c3ccccc23)cc1` showed a half-inhibitory concentration (IC50) of 62.3 µM.

Turning to `Fc1ccc(/N=C/c2cn(Cc3ccccc3)c3ccccc23)cc1`, half-maximal inhibition (IC50) required 91.1 µM.

For `Cc1ccc(/N=C/c2cn(C(=O)c3ccccc3)c3ccccc23)cc1`, the half-inhibitory concentration (IC50) amounted to 80.2 µM.

In turn, `Fc1ccc(/N=C/c2c[nH]c3ccccc23)cc1` returned an IC50 of 68.4 µM.

The compound `Cc1ccc(/N=C/c2cn(Cc3ccccc3)c3ccccc23)cc1` registered an IC50 of 81.5 µM.
